US10251408B2, “Catechin function enhancement method” (KYUSHU UNIVERSITY, NATIONAL UNIVERSITY CORPORATION, priority 2014, dated 2019)

Assays:
[1] = system: 3-hydroxy-3-methyl-glutaryl-CoA reductase (HMGCR); test: Liver HMGCR mRNA by real-time PCR in HF/HS diet-fed mice; assay type: in vivo, mouse; conditions: HF/HS diet-fed C57BL/6J mice; Yabukita 0.2% and/or eriodictyol 0.45 g/kg diet; 8 weeks; FIG. 6
Excerpt: (§1) Male C57BL/6J mice at 12 weeks of age were preliminarily kept for 1 week and then divided into 5 groups such that the average body weight was equal in all groups, i.e., a control (AIN-93G-based diet) group, a HF/HS (high-fat high-sucrose diet) group, a Yabukita (0.2%) (HF/HS+Yabukita) group, an eriodictyol (HF/HS+eriodictyol) group, and a Yabukita+eriodictyol (HF/HS+Yabukita+eriodictyol) group. A feed supplemented with Yabukita (0.2%) and eriodictyol (0.45 g/kg diet) was given to the mice. The feed was given in an amount of 4 g/day and the mice were kept for 8 weeks under ad libitum drinking conditions. After being fasted for 16 hours, the mice were sacrificed by abdominal aortic puncture under isoflurane anesthesia. […] Yabukita and eriodictyol were examined for their effect on cholesterol metabolism-related gene expression in the liver of high-fat high-sucrose diet-fed obese model mice. C57BL/6J mice were preliminarily kept for 1 week and then divided into the respective groups such that the average body weight was equal in all groups. Each feed was given in an amount of 4 g/day and the mice were kept for 8 weeks under ad libitum drinking conditions. After being fasted for 16 hours, the mice were sacrificed by abdominal aortic puncture under isoflurane anesthesia.

[2] = system: tail suspension test-induced disuse amyotrophy in mice; test: Tail suspension test-induced disuse amyotrophy (quadriceps femoris weight); assay type: in vivo, mouse; conditions: C57BL/6J mice; 5 mg/kg intragastric once a day; tail suspension for 10 days from day 7; FIG. 4
Protocol: Male C57BL/6J mice at 12 weeks of age were divided into 5 groups such that the average body weight was equal in all groups, i.e., a GR (ground) group, a TS (tail suspension) group, an EGCG group, an eriodictyol group, and an EGCG+eriodictyol group. From the beginning of grouping, the GR and TS groups received physiological saline, the EGCG group received EGCG and the eriodictyol group received eriodictyol (5 mg/kg) by intragastric administration, while the EGCG+eriodictyol group received EGCG and eriodictyol (5 mg/kg) by intragastric administration through a sonde. For 7 days from the beginning of grouping, all the groups were kept under normal conditions, and the TS, EGCG, eriodictyol, and EGCG+eriodictyol groups were then subjected to a tail suspension test. After the tail suspension test for 10 days (at 17 days after initiation of the experiment), all the mice were sacrificed by abdominal aortic puncture under isoflurane anesthesia, and the quadriceps femoris was excised from each mouse and measured for its weight. Each sample was administered daily throughout the experimental period. […] At 10 days after starting the tail suspension test, the mice were sacrificed by abdominal aortic puncture under isoflurane anesthesia, and the quadriceps femoris was excised from each mouse and measured for its weight.

caspase-3 = test: Caspase-3 activation in MPC-11 tumor sections (immunohistological staining); assay type: in vivo, mouse; conditions: MPC-11-implanted balb/c mice; EGCG 15 mg/kg i.p. and eriodictyol 15 mg/kg i.p.; after 6 hours; FIG. 13
Protocol: After female balb/c mice at 5 weeks of age were preliminarily kept for 2 weeks, a cell suspension of mouse multiple myeloma cell line MPC-11 suspended at 5×10^6 cells/mL in RPMI medium was implanted by subcutaneous injection in a volume of 200 μL into the right dorsal region of each mouse. At 11 days after implantation, the mice were administered […] with EGCG (15 mg/kg i.p.) and eriodictyol (15 mg/kg i.p.) and then sacrificed after 6 hours. Tumors were excised and tissue sections were prepared therefrom, followed by immunohistological staining to determine the number of cells where caspase-3 was activated. To examine the effect of eriodictyol on EGCG-induced activation of caspase-3 indicative of 67LR-dependent cancer cell death induction mechanism activity, female balb/c mice at 5 weeks of age were implanted with mouse multiple myeloma cell line MPC-11 by subcutaneous injection. At 11 days after implantation, the mice were administered with EGCG (15 mg/kg i.p.) and eriodictyol (15 mg/kg i.p.) and then sacrificed after 6 hours. Tissue sections were prepared from the excised tumors and evaluated for the activation state of caspase-3.

[3] = system: Human multiple myeloma cell line U266; test: Cancer cell death induction, viable cells by trypan blue assay (96-well plate, FIG. 9); assay type: cell-based; conditions: 96 hours, in combination with EGCG, EGCG 3″Me or green tea extract
Protocol: Human multiple myeloma cell line U266 was subcultured and maintained in RPMI 1640 medium supplemented with 10% FCS under conditions of 37° C. and water vapor-saturated 5% CO2. The cells were maintained in the logarithmic growth phase. The RPMI 1640 medium used for culture was prepared as follows: per liter of ultrapure water, RPMI 1640 medium (10.4 g), HEPES (2.38 g), injectable penicillin G potassium (100,000 units), streptomycin sulfate injectable (100 mg) and NaHCO3 (2.0 g) were suspended and then filter-sterilized.
The lemon peel extract used in the experiment was prepared as follows. Peels (100 g) were collected with a grater from 6 lemons and 100% EtOH (100 mL) was added thereto, followed by mashing with a mortar. The mashed mixture was further strained through gauze to remove fibers and then filtered by gravity using a #1 paper filter and a funnel to remove precipitates, followed by centrifugation at 12000×g to collect the supernatant. The resulting ethanol extract of lemon was evaporated with an evaporator to volatilize the solvent, thereby obtaining an ethanol-extracted lemon fraction. This ethanol-extracted lemon fraction was dissolved again in DMSO to give a lemon extract. […] After culture, viable cells were counted by trypan blue assay.
To evaluate the effect of combined use of EGCG or a structural analog thereof or an EGCG-containing naturally occurring product and eriodictyol or a structural analog thereof or an eriodictyol-containing naturally occurring product, human multiple myeloma cell line U266 was adjusted to 5×10^4 cells/mL and seeded in a 96-well plate, and then cultured for 96 hours in the presence of EGCG and eriodictyol added at a final concentration of 5 μM each. After culture for 96 hours, viable cells were counted by trypan blue assay.

[4] = system: 3-hydroxy-3-methylglutaryl-CoA synthase (HMCGS); test: Liver HMCGS mRNA by real-time PCR in HF/HS diet-fed mice; assay type: in vivo, mouse; conditions: HF/HS diet-fed C57BL/6J mice; Yabukita 0.2% and/or eriodictyol 0.45 g/kg diet; 8 weeks; FIG. 6
Excerpt: as §1

## O=C1C[C@@H](c2ccc(O)c(O)c2)Oc2cc(O)cc(O)c21 [eriodictyol]
[1]
  mRNA expression level of HMGCR in the liver: no effect
[2]
  effect on amyotrophy (quadriceps femoris weight): no effect on amyotrophy
caspase-3
  effect on EGCG-induced caspase-3 activation in tumors: remarkably enhance the ability of EGCG to induce caspase-3 activation
[3]
  enhancement of the anticancer effect (viable cells) of EGCG, EGCG 3″Me or a green tea extract: remarkably enhance the anticancer effect
[4]
  mRNA expression level of HMCGS in the liver: no effect
